These are literature values, as cited in patent US4024245A, “Antibiotic A-30912 and process for production thereof” (priority 1976, dated 1977).

This data set has as its system dermatophytes. Particulars: F. Benz et al., Helv. Chim. Acta 57, 2459-2477 (1974).

For Echinocandin B, the activity against dermatophytes result is “inactive against dermatophytes”.
